Test results published in patent US20190209581A1, “DOSAGE REGIMEN FOR TREATMENT OF SOLID TUMORS” (Eli Lilly and Company, priority 2016, published 2019).

Key:
[1] = tested on: A2780 human ovarian cell line; test: Tumor growth inhibition, A2780 xenograft; assay type: in vivo; details: for % TGI: A2780 in mice
Protocol: (§1) To evaluate in vivo efficacy and effect of 4,4,4-Trifluoro-N-[(1S)-2-[[(7S)-5-(2-hydroxyethyl)-6-oxo-7H-pyrido[2,3-d][3]benzazepin-7-yl]amino]-1-methyl-2-oxo-ethyl]butanamide on inhibition of Notch processing pharmacodynamics (PD), several cell lines- and patient-derived xenograft models are used. A2780 is a human ovarian cell line (Sigma-Aldrich, No. 93112519); SW480 is a human colorectal cell line (ATCC No. CCL-228); HCT 116 is a human colorectal cell line (ATCC No. CCL-247); U-87 MG is a human glioblastoma cell line (ATCC No. HTB-14); A375 is a human malignant melanoma cell line (ATCC No. CRL-1619); K-562 is a human chronic myelogenous leukemia (CML) cell line characterized by the presence of a fusion transcript comprised of the Bcr and Abl1 genes (ATCC No. CCL-243); Jurkat; HEL 92.1.7 is a human erythroleukemia cell line (ATCC No. TIB-180). Each of the cell lines are obtained from the American Type Culture Collection (ATCC) at the ATCC number stated, except the A2780 cell line which is obtained from Sigma-Aldrich at the stated catalog number. The cells are grown in their respective, recommended culture media at 37° C. in 5% CO2 with humidity in the atmosphere. A2780 (2×10^6), SW480 (6×10^6), HCT 116 (6×10^6), U-87 MG (6×10^6), and A-375 (10×10^6) cells in a 1:1 matrigel mix (0.2 mL volume) are implanted by subcutaneous injection in the hind leg of 6-8 weeks of age athymic nude female mice (Harlan Laboratories). K-562 (6×10^6) cells in a 1:1 matrigel mix (0.2 mL volume) are implanted by subcutaneous injection in the hind leg of 6-8 weeks of age CD1 nμ/nμ female mice (Charles River Laboratories). HEL 92.1.7 (7×10^6) in a 1:1 matrigel mix (0.2 mL volume) are implanted by subcutaneous injection in the hind leg of 6-8 weeks of age CB17 severely combined immune deficient female mice (Taconic Farms). Patient-derived tumors are minced into 1-2 mm pieces and mixed with matrigel (1:1) in 0.2 ml volume and implanted by subcutaneous injection in the hind leg of 6-8 weeks of age athymic nude female mice (Harlan Laboratories). Patients-derived tumor models include: human colon carcinoma (EL2144), human triple negative invasive ductal breast carcinoma (EL1997), human colon carcinoma (EL1989, EL 1986), and human glioblastoma (EL 2056) with samples obtained after patient consent and hospital approval from IU Health, Methodist Hospital, Indianapolis, Ind., USA 46206. A total of 7 to 10 mice are used for each group. Just before implantation for A2780, SW480, HEL 92.1.7, A-375, K-562, and patient-derived tumor models, animals are irradiated (450 Total Body Irradiation). Mice are fed ad libitum on normal chow. Treatment is initiated with oral administration (gavage) of compound or vehicle (1% Na-CMC in 0.25% Tween®-80) in 0.2 mL volume when tumor size reached to 150±50 mm^3. At designated time points following treatment, animals are sacrificed by CO2 asphyxiation and cervical dislocation. Tumors are removed and used for PD response analysis. Tumor growth and body weight are monitored over time to evaluate efficacy and signs of toxicity. Bidimensional measurements of tumors are performed twice a week and tumor volumes are calculated based on the following formula: (Tumor Volume)=[(L)×(W2)×(Π/6)] where L is mid-axis length and W is mid-axis width. Tumor volume data are transformed to a log scale to equalize variance across time and treatment groups. The log volume data are analyzed with a two-way repeated measures analysis of variance by time and treatment using the MIXED™ procedures in SAS™ software (version 8.2). The correlation model for the repeated measures is spatial power. Treated groups are compared to the control group at each time point. The MIXED™ procedure is also used separately for each treatment group to calculate adjusted means and standard errors at each time point. Both analyses account for the autocorrelation within each animal and the loss of data that occurs when animals with large tumors are removed from the study early. […]

[2] = Atropisomer equilibrium in solution by 1H NMR and LC-MS; assay type: physicochemical; details: ambient temperature, after 24 hours
Protocol: In aqueous solutions, 8-9% of atropisomer 2 (minor atropisomer) is detected by ^1H NMR and LC-MS in equilibrium with atropisomer 1 (major atropisomer) at ambient temperature after 24 hours. In organic solvents, at ambient temperature after 24 hours, approximately 1-2% of atropisomer 2 is detected by ^1H NMR and LC-MS in equilibrium with atropisomer 1. Although detectable by ^1H NMR and LC-MS analysis, atropisomer 2 is not isolable.

[3] = tested on: human glioblastoma (EL 2056); test: Tumor growth inhibition, patient-derived tumor model EL2056; assay type: in vivo; details: EL2056 in mice, oral 8 mg/kg, (Mon, Wed, Fri)x5; p <0.0001
Protocol: (§2) To evaluate in vivo efficacy and effect of 4,4,4-Trifluoro-N-[(1S)-2-[[(7S)-5-(2-hydroxyethyl)-6-oxo-7H-pyrido[2,3-d][3]benzazepin-7-yl]amino]-1-methyl-2-oxo-ethyl]butanamide on inhibition of Notch processing pharmacodynamics (PD), several cell lines- and patient-derived xenograft models are used. A2780 is a human ovarian cell line (Sigma-Aldrich, No. 93112519); SW480 is a human colorectal cell line (ATCC No. CCL-228); HCT 116 is a human colorectal cell line (ATCC No. CCL-247); U-87 MG is a human glioblastoma cell line (ATCC No. HTB-14); A375 is a human malignant melanoma cell line (ATCC No. CRL-1619); K-562 is a human chronic myelogenous leukemia (CML) cell line characterized by the presence of a fusion transcript comprised of the Bcr and Abl1 genes (ATCC No. CCL-243); Jurkat; HEL 92.1.7 is a human erythroleukemia cell line (ATCC No. TIB-180). […] Tumor growth and body weight are monitored over time to evaluate efficacy and signs of toxicity. Bidimensional measurements of tumors are performed twice a week and tumor volumes are calculated based on the following formula: (Tumor Volume)=[(L)×(W2)×(Π/6)] where L is mid-axis length and W is mid-axis width. […] The log volume data are analyzed with a two-way repeated measures analysis of variance by time and treatment using the MIXED™ procedures in SAS™ software (version 8.2). […]

[4] = tested on: human triple negative invasive ductal breast carcinoma (EL1997); test: Tumor growth inhibition, patient-derived tumor model EL1997; assay type: in vivo; details: EL1997 in mice, oral 10 mg/kg (Q2Dx7), 11-days OFF, 8 mg/kg (Mon, Wed, Fri)x4; p <0.0001
Protocol: as §2

[5] = tested on: SW480 human colorectal cell line; test: Tumor growth inhibition, SW480 xenograft; assay type: in vivo; details: SW480 in mice, oral 8 mg/kg, (Mon, Wed, Fri)x5; p <0.0001
Protocol: as §2

N1ICD (cleaved Notch1) = test: N1ICD analysis (ELISA) in xenograft tumors; assay type: in vivo, human; details: for % N1ICD Inhibition: 10 mg/kg (Q2Dx7), 11-days OFF
Protocol: as §1

[6] = Homo sapiens, A2780, 4 h, A2780 tumors 4 hours after last dose, Q2Dx13, p <0.0001

C[C@H](NC(=O)CCC(F)(F)F)C(=O)N[C@@H]1C(=O)N(CCO)c2ncccc2-c2ccccc21 [Compound 1, 4,4,4-trifluoro-N-[(1S)-2-[[(7S)-5-(2-hydroxyethyl)-6-oxo-7H-pyrido[2,3-d][3]benzazepin-7-yl]amino]-1-methyl-2-oxo-ethyl]butanamide]
% TGI ([1]; oral 1.5 mg/kg, QDx26, p <0.05 to <0.01): 33.36 (<0.05 to % | % TGI ([1]; oral 3 mg/kg, (BID)QDx7 + (BID)Q2Dx7, p <0.0001): 72.35 (<0.0001) % | % TGI ([1]; oral 3 mg/kg, Q2Dx13, p <0.05 to <0.01): 36.65 (<0.05 to % | % TGI ([1]; oral 3 mg/kg, QDx21, p <0.0001): 46.60 (<0.0001) % | % TGI ([1]; oral 6 mg/kg, Q2Dx13, p <0.05 to <0.01): 36.33 (<0.05 to % | % TGI ([1]; oral 7 mg/kg, Q2Dx13, p <0.0001): 56.95 (<0.0001) % | % TGI ([1]; oral 8 mg/kg, Q2Dx13, p <0.0001): 68.60 (<0.0001) % | % TGI ([1]; oral 10 mg/kg, Q2Dx11, p <0.0001): 56.55 (<0.0001) % | % TGI ([1]; oral 10 mg/kg, Q2Dx13, p <0.0001): 51.11 (<0.0001) % | % TGI ([1]; oral 10 mg/kg, Q3Dx8, p <0.0001): 32.99 (<0.0001) % | Effect of alternative dosing regimens on tumor growth inhibition ([1]; xenograft models of Table 5): more frequent dosing affords greater efficacy | atropisomer 2 (minor atropisomer) in equilibrium with atropisomer 1 ([2]; aqueous solutions): 8-9% | atropisomer 2 (minor atropisomer) in equilibrium with atropisomer 1 ([2]; organic solvents): 1-2% | % TGI [3]: 59.05 (<0.0001) % | % TGI [4]: 80.28 (<0.0001) % | % TGI [5]: 61.00 (<0.0001) % | % N1ICD Inhibition (N1ICD (cleaved Notch1); EL1989 tumors 4 hours after last dose, 8 mg/kg (Mon, Wed, Fri)x3, p <0.0001): 79.2 (<0.0001) % | % N1ICD Inhibition (N1ICD (cleaved Notch1); EL1997 tumors 4 hours after last dose, 8 mg/kg (Mon, Wed, Fri)x4, p <0.0001): 67.9 (<0.0001) % | inhibition at 8 mg/kg (N1ICD (cleaved Notch1); Homo sapiens, 4 h, EL1986 tumors 4 hours after last dose, (Mon, Wed, Fri)x5, p <0.0001): 84.9% | inhibition at 8 mg/kg (N1ICD (cleaved Notch1); Homo sapiens, 4 h, EL2056 tumors 4 hours after last dose, (Mon, Wed, Fri)x5, p <0.0001): 83.5% | inhibition at 1.5 mg/kg (N1ICD (cleaved Notch1); Homo sapiens, A2780, 4 h, A2780 tumors 4 hours after last dose, 1.5 mg/kg, QDx26, p <0.0001): 59% | inhibition at 3 mg/kg (N1ICD (cleaved Notch1); Homo sapiens, A2780, 4 h, A2780 tumors 4 hours after last dose, (BID)QDx7 + (BID)Q2Dx7, p 0.0004): 50.7% | inhibition at 3 mg/kg (N1ICD (cleaved Notch1); [6]): 58.6% | inhibition at 3 mg/kg (N1ICD (cleaved Notch1); Homo sapiens, A2780, 4 h, A2780 tumors 4 hours after last dose, QDx21, p <0.0001): 62.8% | inhibition at 6 mg/kg (N1ICD (cleaved Notch1); Homo sapiens, A2780, 4 h, A2780 tumors 4 hours after last dose, 6 mg/kg, Q2Dx13, p <0.0001): 60.7% | inhibition at 7 mg/kg (N1ICD (cleaved Notch1); Homo sapiens, A2780, 4 h, A2780 tumors 4 hours after last dose, 7 mg/kg, Q2Dx13, p <0.0001): 65.9% | inhibition at 8 mg/kg (N1ICD (cleaved Notch1); [6]): 71.7% | inhibition at 10 mg/kg (N1ICD (cleaved Notch1); Homo sapiens, A2780, 4 h, A2780 tumors 4 hours after last dose, Q2Dx11, p <0.0001): 68.5% | inhibition at 10 mg/kg (N1ICD (cleaved Notch1); [6]): 74.8% | inhibition at 10 mg/kg (N1ICD (cleaved Notch1); Homo sapiens, A2780, 4 h, A2780 tumors 4 hours after last dose, Q3Dx8, p <0.0001): 55.3% | inhibition at 8 mg/kg (N1ICD (cleaved Notch1); Homo sapiens, A-375, 4 h, A-375 tumors 4 hours after last dose, (Mon, Wed, Fri)x4, p <0.0001): 77.5% | inhibition at 8 mg/kg (N1ICD (cleaved Notch1); Homo sapiens, HCT-116, 4 h, HCT 116 tumors 4 hours after last dose, (Mon, Wed, Fri)x4, p =0.0005): 73% | inhibition at 8 mg/kg (N1ICD (cleaved Notch1); Homo sapiens, HEL 92.1.7, 4 h, HEL 92.1.7 tumors 4 hours after last dose, Q2dx14, p <0.0001): 56.7% | inhibition at 8 mg/kg (N1ICD (cleaved Notch1); Homo sapiens, K562, 4 h, K-562 tumors 4 hours after last dose, (Mon, Wed, Fri)x4, p <0.0001): 47.6% | inhibition at 8 mg/kg (N1ICD (cleaved Notch1); Homo sapiens, SW480, 4 h, SW480 tumors 4 hours after last dose, (Mon, Wed, Fri)x5, p =0.0002): 72.5% | inhibition at 8 mg/kg (N1ICD (cleaved Notch1); Homo sapiens, U-87 MG, 4 h, U-87 MG tumors 4 hours after last dose, (Mon, Wed, Fri)x4, p <0.0001): 87.8%
